Patent publication US7129230B2, “Method and product for treating cancer in pets” (Nestec S.A., priority 2001, dated 2006)
Entries after “also recorded” stand apart in the source; their conditions may differ. Read-outs that look alike come from different tables or passages of the source.

Tests used:
[1] = test system: thyroid anaplastic carcinoma cell lines; conditions: four thyroid anaplastic carcinoma cell lines; cited from earlier work
SCC 2/88 cells = assay: Growth of SCC 2/88 cells by fluorescence DNA concentration analysis; format: cell-based, canine; conditions: three-day treatment
Excerpt: Cell culture. […] Each experiment was run in triplicate.

[2] = test system: murine squamous cell carcinoma (SCC) tumor model; conditions: in vitro and in vivo; cited from earlier work
[3] = test system: involucrin in SCC 2/88 cells; assay: Cell differentiation: involucrin by SDS-PAGE and Western blot in SCC 2/88 cells; format: cell-based, canine; conditions: post-confluent cells, up to 7 days; for involucrin expression (anti-involucrin reactive bands) compared to vehicle: 10^−7 M; for involucrin expression (anti-involucrin reactive bands): 10^−9 M
Method: Cell differentiation. Involucrin was extracted from cultured SCC 2/88 cells grown in 175 cm2 culture flasks (Becton Dickinson, Franklin Lakes, N.J.) for one week. Post confluent cells were treated with either vehicle, 1,25(OH)2D3, EB 1089, or analog V at concentrations 10^−7 M and 10^−9 M for up to 7 days. Cells were washed and released from the culture flask with phosphate buffered saline containing 20 mM EDTA. Cells were disrupted with a Branson sonifier (Branson Ultrasonic Corporation, Danbury, Conn.) at a setting of 6 for 3×30 seconds and centrifuged at 100,000 G for 30 minutes at 10° C. The supernatant (cytosol) was made 10% in glycerol and 62.5 mM in Tris-HCl (pH 6.8) and heated for 10 minutes at 100° C. The denatured proteins were removed by centrifugation at 15,000 G for 15 minutes. Involucrin in the supernatant was collected stored at −70° C. until Western blot analysis was performed.
Extracted proteins (20 μg) were separated by electrophoresis through 7.5 % sodium dodecyl sulfate (SDS)-polyacrylamide gel, and transferred to nitrocellulose membrane with use of a semi-dry transferred technique (Bio-Rad laboratories, Hercules, Calif.). The membrane was then blocked in blocking solution (10% dry milk, 0.05% Tween 20 in phosphate buffered saline) overnight at 4° C. The preblocked membrane was incubated in mouse monoclonal antibody against involucrin (Research Diagnotics Inc., Flanders, N.J.) 1:500 for an hour and extensively washed in PBS (pH 7.4) containing 0.05% Tween 20. The blot was then incubated in goat anti-mouse IgG (horseradish peroxidase) (Bio-Rad laboratories, Hercules, Calif.) 1:500 for an hour. After further washing in phosphate buffered saline containing 0.05% Tween 20, the blot was developed for 1 minute in the LumiGLO Chemiluminescent substrate (Kirkegaard and Perry laboratories, Gaithersburg, Md.), and then exposed to x-ray film for 1–5 seconds. After exposure, the membrane was stripped and incubated with mouse monoclonal anti-β-actin (Sigma, Saint Louis, Mo.) to normalize for protein loading. AlphaImager™ Alpha Innotech Corporation, San Leandro) measured the density of involucrin bands.

[4] = test system: PTHrP production in SCC 2/88 cells; conditions: Merryman et al 1993, cited from earlier work
[5] = test system: PTHrP production in human squamous cell lines; conditions: cited from earlier work
[6] = test system: human prostate cancer cell line; conditions: cited from earlier work
osteosarcoma cell lines = conditions: four canine osteosarcoma cell lines; cited from earlier work
[7] = test system: TGF-β mRNA in SCC 2/88 cells; assay: Northern blot analysis of TGF-β mRNA expression in SCC 2/88 cells; format: cell-based, canine; conditions: 10^−7 M, 0, 3, 6, 12 and 24 hrs
[8] = test system: human and rat liver cancer cell lines; conditions: cited from earlier work
[9] = test system: PTHrP mRNA in SCC 2/88 cells; assay: Northern blot analysis of PTHrP mRNA expression in SCC 2/88 cells; format: cell-based, canine

Compound | cell growth [1] | growth of SCC 2/88 cells (concentration of DNA) (SCC 2/88 cells; 10^−7 M) | involucrin expression (anti-involucrin reactive bands) compared to vehicle [3] | involucrin expression (anti-involucrin reactive bands) [3] | PTHrP production in SCC 2/88 cells [4] | growth of SCC 2/88 cells (concentration of DNA) (SCC 2/88 cells; 10^−9 M) | further results
C=C1/C(=C\C=C2/CCC[C@]3(C)[C@@H]([C@H](C)OCCC(C)(C)O)CC[C@@H]23)C[C@@H](O)C[C@@H]1O [22-oxacalcitriol] | dose-dependent inhibition of cell growth in all four of the cell lines |  |  |  |  |  | 
C=C1/C(=C\C=C2/CCC[C@]3(C)[C@@H]([C@H](C)CCCC(C)(C)O)CC[C@@H]23)C[C@@H](O)C[C@@H]1O [1,25(OH)2D3] | diphasic cell growth in three of the four cell lines | inhibit cell proliferation; also recorded: significantly reduced the concentration of DNA | diminished involucrin expression | diminished involucrin expression | promote PTHrP production |  | antitumor effects [2]: significant antitumor effects; PTHrP production in SCC 2/88 cells ([4]; listed as 1,25-(OH)2D3): stimulates production of parathyroid hormone-related protein; PTHrP production [5]: inhibits PTHrP production; cell growth and differentiation [6]: inhibits cell growth and promotes differentiation in a dose-dependent manner; alkaline phosphatase activity (osteosarcoma cell lines): increases alkaline phosphatase activity in one cell line; osteocalcin production (osteosarcoma cell lines): osteocalcin production in two lines; type I collagen production (osteosarcoma cell lines): type I collagen production in three lines; TGF-β mRNA expression compared to vehicle-treated control [7]: did not differ significantly; anti-proliferative activity [8]: anti-proliferative activity in some human and rat liver cancer cell lines
C=C1C(=CC=C2CCCC3(C)C(C(C)CC#CC(C)(C)O)=CCC23)CC(O)CC1O (stereo not drawn) [analog V, 1,25-dihydroxy-16-ene-23-yne-vitamin D] |  | inhibit cell proliferation; also recorded: significantly reduced the concentration of DNA; also recorded: significantly diminished cell growth | more weakly defined than that of the vehicle-treated control; also recorded: diminished involucrin expression; also recorded: weak or substantially absent anti-involucrin reactive bands | more intense than those of the other treated groups; also recorded: stronger anti-involucrin reactive band | promote PTHrP production | no significant inhibition of cell growth | 
TGF-β |  |  |  |  |  |  | increase in PTHrP mRNA compared to vehicle-treated control ([9]; TGF-β 1.5 ng/mL, 6, 12 and 24 hr): 5- to 20 fold; increase in PTHrP mRNA compared with vehicle-treated control ([9]; TGF-β, after 24 hr): 2- to 20 fold
C=C1/C(=C\C=C2/CCC[C@]3(C)[C@@H]([C@H](C)/C=C/C=C/C(O)(CC)CC)CC[C@@H]23)C[C@@H](O)C[C@@H]1O [EB 1089, 22,24-diene-24a,26a,27a-trihomo-1α,25-dihydroxyvitamin D3] |  | inhibit cell proliferation; also recorded: significantly reduced the concentration of DNA; also recorded: significantly diminished cell growth | more weakly defined than that of the vehicle-treated control; also recorded: diminished involucrin expression; also recorded: weak or substantially absent anti-involucrin reactive bands | diminished involucrin expression; also recorded: diminished levels of involucrin | promote PTHrP production | inhibits cell growth significantly; also recorded: significantly reduced the concentration of DNA; also recorded: reduced cell growth at a lower confidence level | 
